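Interpolation was linear, between the two tested concentrations surrounding the appropriate level; five concentrations were tested over 48 hours in 96-well plates. Here, GI50 denotes the concentration required for 50% inhibition of growth. At the TGI there is no net growth.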
Legend:
Experiment in all cases: DTP human tumour cell line panel, 48 h
[1] = tested on: 786-0 renal
[2] = tested on: A498 renal
[3] = tested on: A549 NSCLC
[4] = tested on: ACHN renal
[5] = tested on: BT-549 breast
[6] = tested on: CAKI-1 renal
[7] = tested on: CCRF-CEM leukemia
[8] = tested on: COLO 205 colon
[9] = tested on: DU-145 prostate
[10] = tested on: EKVX NSCLC
[11] = tested on: HCC-2998 colon
[12] = tested on: HCT-116 colon
[13] = tested on: HCT-15 colon
[14] = tested on: HL-60(TB) leukemia
[15] = tested on: HOP-62 NSCLC
[16] = tested on: HOP-92 NSCLC
[17] = tested on: HS 578T breast
[18] = tested on: HT29 colon
[19] = tested on: IGROV1 ovarian
[20] = tested on: K-562 leukemia
[21] = tested on: KM12 colon
[22] = tested on: LOX IMVI melanoma
[23] = tested on: M14 melanoma
[24] = tested on: MALME-3M melanoma
[25] = tested on: MCF7 breast
[26] = tested on: MDA-MB-231 breast
[27] = tested on: MDA-MB-435
[28] = tested on: MOLT-4 leukemia
[29] = tested on: NCI-H226 lung
[30] = tested on: NCI-H23 lung
[31] = tested on: NCI-H460 lung
[32] = tested on: NCI-H522 lung
[33] = tested on: NCI/ADR-RES ovarian
[34] = tested on: OVCAR-3 ovarian
[35] = tested on: OVCAR-4 ovarian
[36] = tested on: OVCAR-5 ovarian
[37] = tested on: OVCAR-8 ovarian
[38] = tested on: PC-3 prostate
[39] = tested on: RPMI-8226 leukemia
[40] = tested on: RXF 393 renal
[41] = tested on: SF-268 CNS
[42] = tested on: SF-295 CNS
[43] = tested on: SF-539 CNS
[44] = tested on: SK-MEL-2 melanoma
[45] = tested on: SK-MEL-28 melanoma
[46] = tested on: SK-MEL-5 melanoma
[47] = tested on: SK-OV-3 ovarian
[48] = tested on: SN12C renal
[49] = tested on: SNB-19 CNS
[50] = tested on: SNB-75 CNS
[51] = tested on: SR leukemia
[52] = tested on: SW-620 colon
[53] = tested on: T-47D breast
[54] = tested on: TK-10 renal
[55] = tested on: U251 CNS
[56] = tested on: UACC-257 melanoma
[57] = tested on: UACC-62 melanoma
[58] = tested on: UO-31 renal

SMILES: COc1cccc(CC(C)=C(c2ccc(OCCCN(C)C)cc2)c2ccc(OCCCN(C)C)cc2)c1
- GI50 [1]: 0.416 µM
- TGI [1]: 0.771 µM
- GI50 [2]: 3.19 µM
- TGI [2]: 6.37 µM
- GI50 [3]: 0.557 µM
- TGI [3]: 1.44 µM
- GI50 [4]: 0.501 µM
- TGI [4]: 0.991 µM
- GI50 [5]: 3.09 µM
- TGI [5]: 6.42 µM
- GI50 [6]: 0.683 µM
- TGI [6]: 1.95 µM
- GI50 [7]: 0.463 µM
- TGI [7]: 1.13 µM
- GI50 [8]: 0.432 µM
- TGI [8]: 0.868 µM
- GI50 [9]: 0.694 µM
- TGI [9]: 1.82 µM
- GI50 [10]: 1.64 µM
- TGI [10]: 5.17 µM
- GI50 [11]: 0.446 µM
- TGI [11]: 0.906 µM
- GI50 [12]: 0.447 µM
- TGI [12]: 0.839 µM
- GI50 [13]: 0.478 µM
- TGI [13]: 0.95 µM
- GI50 [14]: 0.506 µM
- TGI [14]: 1.02 µM
- GI50 [15]: 0.501 µM
- TGI [15]: 1.1 µM
- GI50 [16]: 0.747 µM
- TGI [16]: 3.79 µM
- GI50 [17]: 0.527 µM
- TGI [17]: 1.34 µM
- GI50 [18]: 0.443 µM
- TGI [18]: 0.912 µM
- GI50 [19]: 0.549 µM
- TGI [19]: 1.19 µM
- GI50 [20]: 0.484 µM
- TGI [20]: 1.16 µM
- GI50 [21]: 0.628 µM
- TGI [21]: 1.54 µM
- GI50 [22]: 0.428 µM
- TGI [22]: 0.807 µM
- GI50 [23]: 0.461 µM
- TGI [23]: 0.864 µM
- GI50 [24]: 0.403 µM
- TGI [24]: 0.774 µM
- GI50 [25]: 0.441 µM
- TGI [25]: 0.859 µM
- GI50 [26]: 0.457 µM
- TGI [26]: 0.869 µM
- GI50 [27]: 0.444 µM
- TGI [27]: 0.819 µM
- GI50 [28]: 0.502 µM
- TGI [28]: 1.11 µM
- GI50 [29]: 2.84 µM
- TGI [29]: 6.95 µM
- GI50 [30]: 2.87 µM
- TGI [30]: 6.31 µM
- GI50 [31]: 0.484 µM
- TGI [31]: 0.94 µM
- GI50 [32]: 0.452 µM
- TGI [32]: 1 µM
- GI50 [33]: 0.548 µM
- TGI [33]: 1.28 µM
- GI50 [34]: 0.545 µM
- TGI [34]: 1.2 µM
- GI50 [35]: 0.575 µM
- TGI [35]: 1.41 µM
- GI50 [36]: 0.707 µM
- TGI [36]: 2.06 µM
- GI50 [37]: 0.645 µM
- TGI [37]: 1.8 µM
- GI50 [38]: 0.693 µM
- TGI [38]: 2.46 µM
- GI50 [39]: 0.55 µM
- TGI [39]: 1.29 µM
- GI50 [40]: 0.597 µM
- TGI [40]: 2.57 µM
- GI50 [41]: 0.683 µM
- TGI [41]: 2.05 µM
- GI50 [42]: 0.658 µM
- TGI [42]: 1.87 µM
- GI50 [43]: 0.437 µM
- TGI [43]: 0.801 µM
- GI50 [44]: 0.601 µM
- TGI [44]: 1.65 µM
- GI50 [45]: 0.448 µM
- TGI [45]: 0.822 µM
- GI50 [46]: 0.57 µM
- TGI [46]: 1.31 µM
- GI50 [47]: 4.04 µM
- TGI [47]: 7.57 µM
- GI50 [48]: 0.533 µM
- TGI [48]: 1.22 µM
- GI50 [49]: 0.905 µM
- TGI [49]: 3.34 µM
- GI50 [50]: 0.619 µM
- TGI [50]: 1.77 µM
- GI50 [51]: 0.44 µM
- TGI [51]: 1.21 µM
- GI50 [52]: 0.434 µM
- TGI [52]: 0.867 µM
- GI50 [53]: 0.437 µM
- TGI [53]: 0.884 µM
- GI50 [54]: 1.35 µM
- TGI [54]: 3.01 µM
- GI50 [55]: 0.479 µM
- TGI [55]: 0.987 µM
- GI50 [56]: 0.498 µM
- TGI [56]: 1.09 µM
- GI50 [57]: 0.457 µM
- TGI [57]: 0.835 µM
- GI50 [58]: 0.424 µM
- TGI [58]: 0.795 µM
